What all share (experiment): NCI-60 cell line screen, 48 h
In experiment [1] the test system is COLO 205.
For experiment [2], the system named is HCC 2998.
Experiment [3] relates to HL-60.
For experiment [4], the system named is HOP-92.
Experiment [5] deals with K562.
Experiment [6] relates to LXFL 529.
The subject of experiment [7] is NCI-H460.
The subject of experiment [8] is OVCAR-4.
Experiment [9] has as its system RPMI-8226.
The test system of experiment [10] is SK-MEL-28.
The test system of experiment [11] is SW-620.
For experiment [12], the system named is TK-10.
The test system of experiment [13] is UACC-62.
For experiment [14], the system named is UO-31.
Experiment [15] relates to LOX IMVI.
For experiment [16], the system named is OVCAR-5.
Experiment [17] deals with BT-549.
The subject of experiment [18] is DU-145.
In experiment [19] the test system is NCI/ADR-RES.
In experiment [20] the test system is KM-20L2.

Twelve compounds from ChEMBL document CHEMBL1201862, “PubChem BioAssay data set” (2004) can be followed below.

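In this assay, cells in 96-well plates receive the compound at five concentrations for 48 hours. Endpoints are linearly interpolated between the surrounding concentrations. The concentration for 50% growth inhibition is given as GI50.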 The source made the active and inactive calls. Rule as the data show it: active = GI50 up to about 1.1 µM and inactive = higher.

Turning to `COc1cc(C2Oc3cc(-c4oc5cc(O)cc(O)c5c(=O)c4O)ccc3OC2CO)ccc1O` (configuration not stated) [DEHYDROSILYLBIN], the GI50 is 26.7 µM (inactive) in experiment [1]; 24.8 µM (inactive) in experiment [2]; 9.48 µM (inactive) in experiment [3]; 10.5 µM (inactive) in experiment [4]; 11 µM (inactive) in experiment [5]; 5.26 µM (inactive) in experiment [6]. Also, the GI50 in [7] is 3.72 µM (inactive); in experiment [8] it was 20.7 µM (inactive); in experiment [9] it was 4.41 µM (inactive); in experiment [10], 10.1 µM (inactive); in experiment [11] it was 8.55 µM (inactive); in experiment [12] it was 10.9 µM (inactive). The values for the GI50 in [13] and in experiment [14] were 3.42 µM (inactive) and 2.64 µM (inactive), respectively.
As to `O=C1CNS(=O)(=O)N1`, the GI50 in [1], in [2], in experiment [3], in [4], in [5] and in [6] was > 100 µM (inactive) throughout. Moreover, the GI50 in [8], in experiment [9], in experiment [10], in experiment [11], in experiment [12] and in [13] was > 100 µM (inactive) each time. Also, the GI50 in experiment [14] was > 100 µM (inactive).
For the compound `Cc1nc(=O)n2c(C)n[nH]c2c1C(=O)Nc1cc(Cl)cc(Cl)c1`, the GI50 in experiment [1] is 26.7 µM (inactive); in experiment [3], 20.1 µM (inactive); in experiment [4] it was 17.5 µM (inactive); in experiment [5], 23.8 µM (inactive); in experiment [15] it was 36.2 µM (inactive); in experiment [6], 29.8 µM (inactive). The GI50 in experiment [7] is 26.9 µM (inactive); in [8] it was 29.2 µM (inactive); in experiment [16], 65.3 µM (inactive); in [9] it was 9.91 µM (inactive); in experiment [10], 26.1 µM (inactive); in experiment [11], 41.5 µM (inactive). In addition, the GI50 in experiment [12] was 19.8 µM (inactive); in [13], 16.2 µM (inactive); in experiment [14] it was 20.4 µM (inactive).
As for `CCN(CC)CCNc1ccc2nc(C)n3c4ccc(OC)cc4c(=O)c1c23`, the GI50 in experiment [17] is 5.31 µM (inactive); in experiment [1] it was 0.693 µM (active); in experiment [18], 1.29 µM (inactive); in experiment [2], 0.8 µM (active); in experiment [3] it was 1.17 µM (inactive); in [4], 5.92 µM (inactive). Also, the GI50 in experiment [5] was 0.401 µM (active); in experiment [15], 1.15 µM (inactive); in experiment [6], 1.41 µM (inactive); in experiment [7], 0.538 µM (active); in experiment [19] it was 0.675 µM (active); in experiment [8], 1.41 µM (inactive). The GI50 in experiment [16] was 4.82 µM (inactive); in experiment [9], 1.36 µM (inactive); in [10] it was 10.4 µM (inactive); in [11], 0.711 µM (active); in experiment [12], 0.873 µM (active); in experiment [13] it was 4.9 µM (inactive). Moreover, the GI50 in experiment [14] is 3.08 µM (inactive).
Take `c1ccc2c(c1)CCc1c(-c3ccncc3)n[nH]c1-2`: the GI50 in experiment [1] is 25.7 µM (inactive); in experiment [2] it was 33.1 µM (inactive); in experiment [3], 34.3 µM (inactive); in experiment [5], 48.2 µM (inactive); in experiment [20], 23.6 µM (inactive); in experiment [15], 23.3 µM (inactive). For the same compound, the GI50 is 23.7 µM (inactive) in [6]; 32.1 µM (inactive) in experiment [7]; 32.7 µM (inactive) in experiment [16]; 26.5 µM (inactive) in [9]; 23.8 µM (inactive) in experiment [10]; 39.7 µM (inactive) in [11]. In addition, the figures for the GI50 in [12] and in experiment [13] were 29.8 µM (inactive) and 16.4 µM (inactive), respectively.
With `Cc1ccc(NC(=O)CC2SC(Nc3cccc(Cl)c3C)=NC2=O)cc1` (configuration not stated), the GI50 was 64.7 µM (inactive) in experiment [1]; 99.8 µM (inactive) in experiment [2]; 34.6 µM (inactive) in experiment [5]; 70.8 µM (inactive) in experiment [20]; > 100 µM (inactive) in [15]; 32.4 µM (inactive) in experiment [6]. For the same compound, the GI50 in experiment [7] is 96.6 µM (inactive); in [8], 28.7 µM (inactive); in experiment [16], > 100 µM (inactive); in [9] it was 28.2 µM (inactive); in [10] it was 40.9 µM (inactive); in experiment [11], 68.5 µM (inactive). Also, the GI50 is 92 µM (inactive) in experiment [12], 42 µM (inactive) in experiment [13] and 22.6 µM (inactive) in experiment [14].
Consider `N#CC1([N+](=O)[O-])C=C1c1ccccc1` (configuration not stated), for which the GI50 in [1] was > 100 µM (inactive); in experiment [3] it was 23.3 µM (inactive); in experiment [5], 23.2 µM (inactive); in experiment [20], > 100 µM (inactive); in experiment [15], 28.6 µM (inactive); in experiment [6] it was 32.1 µM (inactive). Besides, the GI50 is 51.2 µM (inactive) in experiment [7]; > 100 µM (inactive) in [8]; > 100 µM (inactive) in [16]; 19.5 µM (inactive) in [9]; 19.9 µM (inactive) in [11]; > 100 µM (inactive) in [12]. The figures for the GI50 in [13] and in experiment [14] were 20.9 µM (inactive) and > 100 µM (inactive), respectively.
On to `CCOC(=O)C1=C(C)NC(C)=C(C(=O)OCCNC(=O)c2ccc(N=[N+]=[N-])cc2)C1c1ccccc1C(F)(F)F` (configuration not stated) [AZIDOPINE], for which the GI50 in experiment [17] was 13.9 µM (inactive); in [1] it was 6.25 µM (inactive); in experiment [18], 10.5 µM (inactive); in experiment [2], 13.2 µM (inactive); in experiment [3] it was 7.66 µM (inactive); in [4], 2.01 µM (inactive). For the same compound, the GI50 in [5] was 7.83 µM (inactive); in experiment [15] it was 10.7 µM (inactive); in [7], 9.12 µM (inactive); in [19], 8.28 µM (inactive); in experiment [8] it was 12.2 µM (inactive); in experiment [16], 19.9 µM (inactive). Further, the GI50 in experiment [9] was 4.37 µM (inactive); in experiment [10], 13.4 µM (inactive); in experiment [11] it was 15.3 µM (inactive); in experiment [12], 8.22 µM (inactive); in experiment [13] it was 11.2 µM (inactive); in experiment [14], 4.79 µM (inactive).
With `CCOC(=O)C(NC(=O)CC(C)C)(N1CCN(c2cc3c(cc2F)c(=O)c(C(=O)O)cn3C2CC2)CC1)C(F)(F)F` (configuration not stated), the GI50 in experiment [17] was 16.3 µM (inactive); in [1], 16.7 µM (inactive); in experiment [18] it was 34.4 µM (inactive); in experiment [2], 12 µM (inactive); in [3], 5.75 µM (inactive); in [4], 9.57 µM (inactive). The GI50 in [5] is 11 µM (inactive); in experiment [15], 15.8 µM (inactive); in [7], 28.1 µM (inactive); in experiment [19], 19.7 µM (inactive); in experiment [8] it was 20.8 µM (inactive); in [16] it was 17.7 µM (inactive). In addition, the GI50 in experiment [9] is 20.9 µM (inactive); in [10], 20.9 µM (inactive); in [11] it was 19.6 µM (inactive); in [12] it was 10.3 µM (inactive); in experiment [13], 15.2 µM (inactive); in experiment [14] it was 17.9 µM (inactive).
Regarding `CC(C)Oc1cccc(N2C(CCc3c[nH]c4ccc(Br)cc34)=NS(=O)(=O)c3cnccc32)c1`, the GI50 in [17] was 57.4 µM (inactive); in [1], 17.9 µM (inactive); in experiment [18], 94.4 µM (inactive); in experiment [2], 60.4 µM (inactive); in [3], 23.3 µM (inactive); in [4], 17.5 µM (inactive). Besides, the GI50 in experiment [5] was 27 µM (inactive); in experiment [15], 59.7 µM (inactive); in [7], 35.1 µM (inactive); in experiment [19], 44 µM (inactive); in [8], 27.5 µM (inactive); in experiment [16] it was 29.1 µM (inactive). For the same compound, the GI50 in experiment [9] is 24 µM (inactive); in experiment [10], > 100 µM (inactive); in experiment [11] it was 72.3 µM (inactive); in [12], 53.8 µM (inactive); in [13], 33.3 µM (inactive); in experiment [14], 3.64 µM (inactive).
In the case of `OCCC1(O)CCC(O)CC1` (configuration not stated), the GI50 in experiment [1], in experiment [2], in [3], in experiment [4], in experiment [5] and in [15] was > 100 µM (inactive) throughout. Also, the GI50 in [6], in experiment [7], in experiment [8], in experiment [16], in experiment [9] and in [10] was > 100 µM (inactive) in each case. Further, the GI50 in experiment [11], in [12], in experiment [13] and in experiment [14] was > 100 µM (inactive) throughout.
Turning to `CC1(C)C(=O)N=C(N)N1C(=O)OCc1ccccc1`, the GI50 in [17], in experiment [1], in experiment [18], in experiment [2], in [3] and in experiment [4] was > 100 µM (inactive) each time. Besides, the GI50 in experiment [5], in experiment [15], in experiment [7], in [19], in experiment [8] and in [16] was > 100 µM (inactive) throughout. Also, the GI50 in [9] is > 100 µM (inactive); in [10] it was > 100 µM (inactive); in experiment [11], > 100 µM (inactive); in experiment [12], > 100 µM (inactive); in experiment [13], > 100 µM (inactive); in [14], 67.6 µM (inactive).
